One molecule from PMC5289526, “Crystal Structure and Catalytic Mechanism of CouO, a Versatile C-Methyltransferase from Streptomyces rishiriensis” (PLoS ONE, 2017) can be followed below.

For the test, the target named is T1, CouO (Streptomyces rishiriensis, UniProt Q9F8T9).
T1 construct: recombinant from E. coli; pET26b-CouO template, pMS470 vector in E. coli TOP10F' for activity assays
Description: X-ray crystal structure, […] Å. It counts as binding. To be noted: one SAH in each of two chains; cofactor site.

T1 sequence (Q9F8T9 whole entry): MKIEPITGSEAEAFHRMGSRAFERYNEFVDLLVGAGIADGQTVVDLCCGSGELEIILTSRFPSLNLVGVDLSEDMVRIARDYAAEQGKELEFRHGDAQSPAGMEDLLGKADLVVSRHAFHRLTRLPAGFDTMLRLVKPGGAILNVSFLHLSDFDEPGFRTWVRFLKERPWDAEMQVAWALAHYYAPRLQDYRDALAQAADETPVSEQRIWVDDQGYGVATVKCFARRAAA

Regarding `Nc1ncnc2c1ncn2[C@@H]1O[C@H](CSCC[C@H](N)C(=O)O)[C@@H](O)[C@H]1O` [SAH], the “X-ray crystal structure, 2.05 Å” value is recorded as “one SAH cofactor molecule was present in each chain”.
